Experimental data from US5157052A, “Method for inhibiting IgE production” (priority 1990, dated 1992).
Entries after “also recorded” stand apart in the source; their conditions may differ.

Legend:
IgE [1] = experiment: Serum IgE response induced by FF1-4D5 + H∂A1 anti-IgD antibodies (ELISA, Assay A / Assay F); format: in vivo, mouse (Balb/c female)
Description: Mouse hybridoma cells expressing either FF1-4D5 antibody or H∂A1 antibody are thawed, established in culture, and incubated in mice as ascite tumors. FF1-4D5 antibody is a mouse IgG2a monoclonal antibody of the b allotype that binds the Fd fragment of the ∂ chain of the a allotype IgD which activates β cells through antigen internalization and processing, promoting cognate interactions with antigen-specific T cells (D. K. Goroff et al., J. Immunol. 136: 2382 (1986)). H∂A1 antibody is a mouse IgG2b of the b allotype that binds the Fc fragment of the ∂ chain of the a allotype IgD which activates β cells through crosslinking IgD (I. M. Zitron and B. L. Clevinger, J. Exp. Med. 152: 1135 (1980)). Each antibody is purified from their respective ascites tumor fluid. […] Serum from the injected mice is recovered and the mean concentration of IgE determined.
Serum levels of IgE are determined and IgE levels are shown to be inhibited in a dose dependent manner.
(§1) ELISA (enzyme linked immunosorbant assay) measurements of IgE are as follows. About 5 μg of B1E3 antibody in 100 μl borate buffered saline (pH8.5) is added to wells of a NuncImmulon II 96 well plate (DiRuscio & Assoc., St. Louis, Mo.) at 37° C. for 90 minutes. The non-bound antibody is removed by flicking the plate. Unreacted sites on the plastic plate are blocked by adding about 200 μl of a 2% solution of newborn bovine serum (NBS) in PBS at 37° C. for 60 minutes. The standard IgE (or an unknown murine serum sample) is diluted to between about 4 ng/ml-256 ng/ml in Hanks-HS (20 mM Hepes, 2% NBS in Hanks Balanced Salt Solution, Gibco, Grand Island, N.Y.) or to 1/200 to 1/1000 in Hanks-HS respectively. 100 μl of standard (or unknown dilutions) are added in triplicate to the wells of the plate and allowed to absorb to B1E3 antibody at about 37° C. for 2-4 hours. The solution is removed by flicking the plate and each well is washed with about 0.5 ml 0.05% Tween 20-PBS 5 times. About 100 μl of biotinylated R1E4, called the primary antibody, diluted to 200 ng/ml is added to all wells and incubated at about 4° C. overnight. The solution is removed by flicking the plate and washed 5 times as described above. The developing reagent (Avidin and biotin-horse radish peroxidase) is incubated in 2% NBS in PBS at ambient temperature for 30 minutes, according to manufacturer's specifications (Vector Laboratories, Burlingame, Calif.). About 100 μl of developing reagent is added to each well and incubated at ambient temperature for 30 minutes. Colorimetric substrate for the developing reagent (ABTS peroxidase substrate system, KPL, Gaithersburg, Md.) is prepared by mixing equal volumes of solutions A and B and incubating at ambient temperature for 60 minutes. The developing reagent solution is removed by flicking the plate and washed 5 times as described above. About 100 μl of the mixture of substrates is added to each well and incubated at ambient temperature for 60 minutes. The optical density of each well is determined on a BioTek ELISA reader (Biotek Instruments, Inc., Burlington, Vermont) and the absorbance data transferred electronically to a DEC VAX mainframe computer. A standard curve is fitted to the IgE standard optical densities using straight line, linear regression statistical fits. IgE in the unknown serum samples is determined by comparing the optical density of the unknown to the standard curve and multiplying that number by the dilution of serum used in the assay.
Stimulation of a transient serum IgE response in mouse with two monoclonal antibodies directed against IgD is carried out as follows.
Mouse hybridoma cells expressing either FF1-4D5 antibody or H∂Al antibody are thawed, established in culture, and incubated in CB6 F1 female mice as an ascites tumor and each immunoglobulin is purified from the ascites fluid as described above. […]

IgE [2] = experiment: Inhibition of de novo IgE synthesis after oral (intragastric) administration; format: in vivo, mouse (Balb/c female); conditions: for IgE ± SD: 20 μg intragastric TID days 3 and 4
Description: as §1
Three groups of 4 Balb/c female mice per group are injected with both 100 μg FF1-4D5 antibody and 100 μg H∂A1 antibody (Groups B, C, and D). Another group of 4 Balb/c female mice is injected with PBS alone, unstimulated control Group A. One of the stimulated group were not given any prostaglandin control Group B. On day 3 and 4, individual groups receive an intragastric feeding TID of 0.25 ml of 20 μg of (±) methyl 11α,16-dihydroxy-16-methyl-9-oxoprosta-5Z,13E-dien-1-oate (Group C) or 20 μg of prostaglandin E2 (Group D) dissolved in PBS.

IgE [3] = experiment: ED50 for inhibition of IgE calculated from the examples; format: in vivo, mouse; conditions: for ED50 IgE Inhibition: dose to achieve 50% inhibition of IgE
Description: From the data in the above examples, the effective dose of each prostaglandin to achieve 50% inhibition of IgE (ED50) was calculated.

IgE [4] = experiment: In vitro IgE inhibition; format: cell-based
[5] = J. Pene et al., 1988; cited from earlier work
IgM = experiment: Serum IgM in anti-IgD stimulated mice (two site sandwich ELISA, Assay E); format: in vivo, mouse (Balb/c female); conditions: 20 μg IP 3x daily days 3 and 4
Description: Sera from mice treated with compounds in accordance with the method of the invention are analyzed for levels of IgG1, IgG2a, IgG3, and IgM.
Measurement of mouse IgM by a two site sandwich ELISA is performed in substantial accordance with the teachings of Assay B except for the following changes. About 250 ng of rabbit anti-mouse IgM (Zymed Laboratories) is used to coat a NuncImmulon 96 well plate. The IgM standard is purchased from Southern Biotech. The standard curve is linear between 8-500 ng/ml. Serum containing IgM is diluted 1/4,000 to 1/60,000. About a 1/10,000 dilution of goat anti mouse IgM conjugated to horse radish peroxidase is used as a combined primary antibody and developing reagent. 100 μl is added to each well and the plate is incubated at about 4° C. overnight. The colorimetric substrate is prepared and used as described in Assay A.
Two groups of 4 Balb/c female mice per group are injected with both 100 μg FF1-4D5 antibody and 100 μg H∂Al antibody. On day 3 and 4 the mice are injected with PBS (Group A) or 20 μg (±) methyl 11α,16-dihydroxy-16-ethyl-9-oxoprosta-5Z,13E-dien-1-oate (Group B) at 7 a.m., 1 p.m. and 7 p.m. in substantial accordance with the teaching of Example 13. On day -1, 7, 8, 9 and 11, 50-100 μl of serum is recovered and analyzed for IgE by Assay A and for IgM by Assay E. The results are shown in Table 6.
Three groups of 5 Balb/c female mice per group are injected with both 100 μg FF1-4D5 antibody and 100 μg H∂A1 antibody on day 0. Group A is a control with no further treatment. On day 3 and 4, the mice are injected with 20 μg (±) methyl 11α,16-dihydroxy-4,4,16-trimethyl-9-oxoprosta-13E-en-1-oate (Group B) or 20 μg (±) methyl 11α,16-dihydroxy-16-methyl-9-oxoprosta-3,5Z,13E-trien-1-oate (Group C) as in Example 13. On day -1 and 8, […] of serum is recovered and analyzed for IgE, IgG1, IgG2a, IgG3 and IgM by Assays A, B, C, D and E, respectively.

[6] = system: leukocyte membrane proteins; experiment: Cell surface density or distribution of leukocyte membrane proteins, overall; format: in vivo, mouse (Balb/c female); conditions: unstimulated mice, 20 μg
[7] = rat, in vivo
Description: (§2) Briefly, adult Charles River male rats weighing 210-230 g were individually housed and fasted with water available ad libitum for 24 hours prior to the test. The animals (N=6-12) received logarithmically graded prostaglandin doses orally. Immediately after administration, the animals were returned to their cages, and diarrhea, if any, was assessed on an all or none basis for 8 hours after drug treatment. The ED50 and relative potency values were calculated by the logistic method of Berkson.

[8] = Diarrheal effects in rats; conditions: rat, in vivo, po
Description: as §2

[9] = Table 9, 20 μg IP days 3 and 4, day 8 (control 3539)
[10] = Table 9, 20 μg IP days 3 and 4, day -1 baseline before treatment
[11] = day -1 baseline before treatment

In the case of `CCCCC[C@H](O)/C=C/[C@H]1[C@H](O)CC(=O)[C@@H]1C/C=C\CCCC(=O)O` [prostaglandin E2], the “inhibition of de novo IgE synthesis in vivo” value (IgE [1]; 20 μg days 3 and 4) is reported as “lack of inhibition”, the “IgE ± SD” value (IgE [1]; [9]) is reported as 3340 ± 384 ng/mL and the “IgE ± SD” value (IgE [1]; [10]) is reported as 897 ± 194 ng/mL. The “inhibition of IgE in vivo” value (IgE [1]; summary statement) was “only low inhibition in vivo”, the “inhibition of de novo IgE synthesis after oral administration” value (IgE [2]; 20 μg intragastric TID) was “ineffective; also recorded: inhibits IgE synthesis slightly, if at all” and the “IgE ± SD” value (IgE [2]; day 8 (stimulated control 5792, unstimulated 1015)) was 3724 ± 1361 ng/mL. The “IgE ± SD” value (IgE [2]; day 10 (stimulated control 1498)) was 1496 ± 219 ng/mL, the “IgE ± SD” value (IgE [2]; [11]) was 1094 ± 107 ng/mL and the “ED50 IgE Inhibition” value (IgE [3]) was greater than 45.0 μg/mouse/TID. The “dosage to achieve 50% inhibition of IgE” value (IgE [3]; text of Example 28) was “greater than 45 μg/mouse”, the “inhibition of IgE in vitro” value (IgE [4]) was “exhibit inhibition of IgE in vitro” and the “immunosuppressive effects in vitro” value [5] was “Immunosuppressive effects of prostaglandins in vitro has been demonstrated”.
With `CCCCC(O)(CC)C/C=C/[C@H]1[C@H](O)CC(=O)[C@@H]1C/C=C\CCCC(=O)OC` (mixture of isomers) [(±) methyl 11α,16-dihydroxy-16-ethyl-9-oxoprosta-5Z,13E-dien-1-oate] the “IgE production” value (IgE [1]; 20 μg IP 3x daily days 3 and 4, Table 6) was “IgE production is fully inhibited”, the “IgE ± SD” value (IgE [1]; Table 6, 20 μg IP 3x daily days 3 and 4, day 7 (PBS 4545)) was 847 ± 67 ng/mL and the “IgE ± SD” value (IgE [1]; Table 6, 20 μg IP 3x daily days 3 and 4, day 8 (PBS 11398)) was 1264 ± 173 ng/mL. The “IgE ± SD” value (IgE [1]; Table 6, 20 μg IP 3x daily days 3 and 4, day 9 (PBS 7114)) was 1064 ± 106 ng/mL, the “IgE ± SD” value (IgE [1]; Table 6, 20 μg IP 3x daily days 3 and 4, day 11 (PBS 1064)) was 808 ± 16 ng/mL and the “IgE ± SD” value (IgE [1]; Table 6, 20 μg IP 3x daily days 3 and 4, day -1 baseline before treatment) was less than 800 ng/mL. The “IgM synthesis” value (IgM; Table 6) was “IgM synthesis is not affected”, the “IgM ± SD” value (IgM; day 7 (PBS 1488)) was 1858 ± 107 µg/mL and the “IgM ± SD” value (IgM; day 8 (PBS 1690)) was 2569 ± 803 µg/mL. The “IgM ± SD” value (IgM; day 9 (PBS 1396)) was 2104 ± 276 µg/mL, the “IgM ± SD” value (IgM; day 11 (PBS 548)) was 725 ± 199 µg/mL and the “IgM ± SD” value (IgM; [11]) was 272 ± 19 µg/mL. The “cell surface density and distribution” value [6] was “identical cell surface density and distribution as the control group”.
For `CCCCC[C@H](O)/C=C/[C@H]1[C@H](O)CC(=O)[C@@H]1CCCCCCC(=O)O` [prostaglandin E1, reference compound], the “inhibition of de novo IgE synthesis in vivo” value (IgE [1]; 20 μg days 3 and 4) was “lack of inhibition”, the “IgE ± SD” value (IgE [1]; [9]) was 2958 ± 717 ng/mL and the “IgE ± SD” value (IgE [1]; [10]) was less than 800 ng/mL. For the same molecule, the “inhibition of IgE in vivo” value (IgE [1]; summary statement) was “only low inhibition in vivo” and the “inhibition of IgE in vitro” value (IgE [4]) was “exhibit inhibition of IgE in vitro”.
In the case of `CCCCCCC(C)(O)C/C=C/[C@H]1[C@H](O)CC(=O)[C@@H]1CCCCCCC(=O)OC` (mixture of isomers) [(±) methyl-20-ethyl-11α,16-dihydroxy-16-methyl-9-oxoprost-13E-en-1-oate], the “de novo IgE synthesis” value (IgE [1]; 20 μg days 3 and 4, Example 24) is reported as “inhibits de novo IgE synthesis”, the “IgE ± SD” value (IgE [1]; Table 13, 20 μg days 3 and 4, day 8 (control 3653)) is reported as less than 800 ng/mL and the “IgE inhibition” value (IgE [1]; summary statement) is reported as “excellent IgE inhibition”. The “ED50 IgE Inhibition” value (IgE [3]) was 1.0 μg/mouse/TID, the “diarrhea side effects” value [7] was “essentially free of detrimental diarrhea side effects” and the “diarrhea side-effect” value ([7]; po) was “essentially free of the undesirable diarrhea side-effect”. The TD50 at 8 h [8] was 2.7 mg/kg.
